Test results taken from article PMC11345841, “Exploring 2-Sulfonylpyrimidine Warheads as Acrylamide Surrogates for Targeted Covalent Inhibition: A BTK Story” (Journal of Medicinal Chemistry, 2024).
Read-outs that look alike come from different tables or passages of the source.

Experiments:
Test in all cases: KINOMEscan ScanTK
Format in all cases: binding
FLT3(ITD) = test system: FLT3(ITD)
ROS1 = molecular target: T1, ROS1 (Homo sapiens, UniProt P08922)
T1 construct: purchased Eurofins DiscoverX KINOMEscan (scanTK)

EGFR(S752-I759del) = molecular target: T2, EGFR(S752-I759del) (Homo sapiens, UniProt P00533, DEL752-759)
T2 construct: purchased Eurofins DiscoverX KINOMEscan (scanTK)

PDGFRB = molecular target: T3, PDGFRB (Homo sapiens, UniProt P09619)
T3 construct: purchased Eurofins DiscoverX KINOMEscan (scanTK)

[1] = molecular target: T4, JAK2(JH1domain-catalytic) (Homo sapiens, UniProt O60674)
T4 construct: JAK2(JH1domain-catalytic); purchased Eurofins DiscoverX KINOMEscan (scanTK)

FYN = molecular target: T5, FYN (Homo sapiens, UniProt P06241)
T5 construct: purchased Eurofins DiscoverX KINOMEscan (scanTK)

KIT(D816V) = molecular target: T6, KIT(D816V) (Homo sapiens, UniProt P10721, D816V)
T6 construct: purchased Eurofins DiscoverX KINOMEscan (scanTK)

FGR = molecular target: T7, FGR (Homo sapiens, UniProt P09769)
T7 construct: purchased Eurofins DiscoverX KINOMEscan (scanTK)

[2] = molecular target: T8, JAK1(JH1domain-catalytic) (Homo sapiens, UniProt P23458)
T8 construct: JAK1(JH1domain-catalytic); purchased Eurofins DiscoverX KINOMEscan (scanTK)

ABL2 = molecular target: T9, ABL2 (Homo sapiens, UniProt P42684)
T9 construct: purchased Eurofins DiscoverX KINOMEscan (scanTK)

EGFR(L858R,T790M) = molecular target: T10, EGFR(L858R,T790M) (Homo sapiens, UniProt P00533, L858R/T790M)
T10 construct: purchased Eurofins DiscoverX KINOMEscan (scanTK)

ABL1-phosphorylated = molecular target: T11, ABL1-phosphorylated (Homo sapiens, UniProt P00519)
T11 construct: purchased Eurofins DiscoverX KINOMEscan (scanTK)

FGFR2 = molecular target: T12, FGFR2 (Homo sapiens, UniProt P21802)
T12 construct: purchased Eurofins DiscoverX KINOMEscan (scanTK)

YES = molecular target: T13, YES (Homo sapiens, UniProt P07947)
T13 construct: purchased Eurofins DiscoverX KINOMEscan (scanTK)

EPHA1 = molecular target: T14, EPHA1 (Homo sapiens, UniProt P21709)
T14 construct: purchased Eurofins DiscoverX KINOMEscan (scanTK)
T14 sequence (P21709 26-976): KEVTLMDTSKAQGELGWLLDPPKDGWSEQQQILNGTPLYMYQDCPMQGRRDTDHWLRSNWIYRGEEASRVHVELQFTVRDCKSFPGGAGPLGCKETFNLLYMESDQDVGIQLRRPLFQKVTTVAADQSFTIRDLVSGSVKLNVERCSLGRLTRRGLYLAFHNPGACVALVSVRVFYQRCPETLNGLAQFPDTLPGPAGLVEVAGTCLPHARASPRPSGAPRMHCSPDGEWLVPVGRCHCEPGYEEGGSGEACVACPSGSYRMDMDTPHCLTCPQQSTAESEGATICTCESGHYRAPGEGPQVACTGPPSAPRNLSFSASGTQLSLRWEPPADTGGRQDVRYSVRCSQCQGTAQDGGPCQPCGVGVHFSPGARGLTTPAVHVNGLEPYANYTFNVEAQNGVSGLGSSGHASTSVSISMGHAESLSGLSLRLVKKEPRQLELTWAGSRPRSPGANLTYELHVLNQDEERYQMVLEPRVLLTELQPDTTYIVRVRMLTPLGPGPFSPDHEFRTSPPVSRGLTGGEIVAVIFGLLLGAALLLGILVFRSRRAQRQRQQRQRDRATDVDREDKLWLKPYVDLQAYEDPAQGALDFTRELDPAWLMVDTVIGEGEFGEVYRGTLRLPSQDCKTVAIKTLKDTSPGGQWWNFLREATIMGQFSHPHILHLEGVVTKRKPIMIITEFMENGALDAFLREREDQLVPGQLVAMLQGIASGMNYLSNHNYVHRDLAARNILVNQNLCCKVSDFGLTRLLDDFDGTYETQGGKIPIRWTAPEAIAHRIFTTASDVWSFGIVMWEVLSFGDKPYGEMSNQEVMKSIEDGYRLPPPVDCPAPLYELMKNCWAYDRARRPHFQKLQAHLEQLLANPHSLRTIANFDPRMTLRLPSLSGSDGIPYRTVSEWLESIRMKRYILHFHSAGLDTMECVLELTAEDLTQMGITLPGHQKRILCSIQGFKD

T5 sequence (P06241 whole entry): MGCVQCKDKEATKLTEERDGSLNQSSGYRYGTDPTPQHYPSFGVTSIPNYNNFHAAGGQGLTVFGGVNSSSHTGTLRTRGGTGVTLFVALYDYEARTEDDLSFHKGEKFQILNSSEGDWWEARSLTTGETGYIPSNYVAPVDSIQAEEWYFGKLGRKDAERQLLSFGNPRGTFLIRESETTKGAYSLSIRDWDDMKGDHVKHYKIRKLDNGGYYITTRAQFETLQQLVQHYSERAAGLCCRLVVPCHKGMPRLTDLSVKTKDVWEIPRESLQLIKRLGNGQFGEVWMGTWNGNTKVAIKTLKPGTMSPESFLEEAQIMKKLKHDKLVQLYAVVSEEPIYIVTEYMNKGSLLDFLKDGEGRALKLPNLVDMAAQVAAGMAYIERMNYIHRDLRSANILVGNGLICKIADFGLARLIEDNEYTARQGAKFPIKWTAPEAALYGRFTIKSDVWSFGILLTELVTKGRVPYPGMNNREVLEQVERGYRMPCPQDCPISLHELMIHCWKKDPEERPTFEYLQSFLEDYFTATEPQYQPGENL
T2 sequence (P00533 with tags, fused parts or gaps DEL752-759 limits assumed): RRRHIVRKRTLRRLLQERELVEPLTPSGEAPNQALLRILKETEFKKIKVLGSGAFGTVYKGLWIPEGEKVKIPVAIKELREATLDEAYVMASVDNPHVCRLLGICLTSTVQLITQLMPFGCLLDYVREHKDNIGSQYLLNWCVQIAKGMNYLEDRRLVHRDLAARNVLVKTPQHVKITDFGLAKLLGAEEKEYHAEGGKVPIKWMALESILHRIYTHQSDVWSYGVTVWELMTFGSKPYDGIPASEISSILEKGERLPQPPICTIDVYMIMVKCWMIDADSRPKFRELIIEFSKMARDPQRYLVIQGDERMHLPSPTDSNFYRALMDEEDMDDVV
T1 sequence (P08922 28-2347): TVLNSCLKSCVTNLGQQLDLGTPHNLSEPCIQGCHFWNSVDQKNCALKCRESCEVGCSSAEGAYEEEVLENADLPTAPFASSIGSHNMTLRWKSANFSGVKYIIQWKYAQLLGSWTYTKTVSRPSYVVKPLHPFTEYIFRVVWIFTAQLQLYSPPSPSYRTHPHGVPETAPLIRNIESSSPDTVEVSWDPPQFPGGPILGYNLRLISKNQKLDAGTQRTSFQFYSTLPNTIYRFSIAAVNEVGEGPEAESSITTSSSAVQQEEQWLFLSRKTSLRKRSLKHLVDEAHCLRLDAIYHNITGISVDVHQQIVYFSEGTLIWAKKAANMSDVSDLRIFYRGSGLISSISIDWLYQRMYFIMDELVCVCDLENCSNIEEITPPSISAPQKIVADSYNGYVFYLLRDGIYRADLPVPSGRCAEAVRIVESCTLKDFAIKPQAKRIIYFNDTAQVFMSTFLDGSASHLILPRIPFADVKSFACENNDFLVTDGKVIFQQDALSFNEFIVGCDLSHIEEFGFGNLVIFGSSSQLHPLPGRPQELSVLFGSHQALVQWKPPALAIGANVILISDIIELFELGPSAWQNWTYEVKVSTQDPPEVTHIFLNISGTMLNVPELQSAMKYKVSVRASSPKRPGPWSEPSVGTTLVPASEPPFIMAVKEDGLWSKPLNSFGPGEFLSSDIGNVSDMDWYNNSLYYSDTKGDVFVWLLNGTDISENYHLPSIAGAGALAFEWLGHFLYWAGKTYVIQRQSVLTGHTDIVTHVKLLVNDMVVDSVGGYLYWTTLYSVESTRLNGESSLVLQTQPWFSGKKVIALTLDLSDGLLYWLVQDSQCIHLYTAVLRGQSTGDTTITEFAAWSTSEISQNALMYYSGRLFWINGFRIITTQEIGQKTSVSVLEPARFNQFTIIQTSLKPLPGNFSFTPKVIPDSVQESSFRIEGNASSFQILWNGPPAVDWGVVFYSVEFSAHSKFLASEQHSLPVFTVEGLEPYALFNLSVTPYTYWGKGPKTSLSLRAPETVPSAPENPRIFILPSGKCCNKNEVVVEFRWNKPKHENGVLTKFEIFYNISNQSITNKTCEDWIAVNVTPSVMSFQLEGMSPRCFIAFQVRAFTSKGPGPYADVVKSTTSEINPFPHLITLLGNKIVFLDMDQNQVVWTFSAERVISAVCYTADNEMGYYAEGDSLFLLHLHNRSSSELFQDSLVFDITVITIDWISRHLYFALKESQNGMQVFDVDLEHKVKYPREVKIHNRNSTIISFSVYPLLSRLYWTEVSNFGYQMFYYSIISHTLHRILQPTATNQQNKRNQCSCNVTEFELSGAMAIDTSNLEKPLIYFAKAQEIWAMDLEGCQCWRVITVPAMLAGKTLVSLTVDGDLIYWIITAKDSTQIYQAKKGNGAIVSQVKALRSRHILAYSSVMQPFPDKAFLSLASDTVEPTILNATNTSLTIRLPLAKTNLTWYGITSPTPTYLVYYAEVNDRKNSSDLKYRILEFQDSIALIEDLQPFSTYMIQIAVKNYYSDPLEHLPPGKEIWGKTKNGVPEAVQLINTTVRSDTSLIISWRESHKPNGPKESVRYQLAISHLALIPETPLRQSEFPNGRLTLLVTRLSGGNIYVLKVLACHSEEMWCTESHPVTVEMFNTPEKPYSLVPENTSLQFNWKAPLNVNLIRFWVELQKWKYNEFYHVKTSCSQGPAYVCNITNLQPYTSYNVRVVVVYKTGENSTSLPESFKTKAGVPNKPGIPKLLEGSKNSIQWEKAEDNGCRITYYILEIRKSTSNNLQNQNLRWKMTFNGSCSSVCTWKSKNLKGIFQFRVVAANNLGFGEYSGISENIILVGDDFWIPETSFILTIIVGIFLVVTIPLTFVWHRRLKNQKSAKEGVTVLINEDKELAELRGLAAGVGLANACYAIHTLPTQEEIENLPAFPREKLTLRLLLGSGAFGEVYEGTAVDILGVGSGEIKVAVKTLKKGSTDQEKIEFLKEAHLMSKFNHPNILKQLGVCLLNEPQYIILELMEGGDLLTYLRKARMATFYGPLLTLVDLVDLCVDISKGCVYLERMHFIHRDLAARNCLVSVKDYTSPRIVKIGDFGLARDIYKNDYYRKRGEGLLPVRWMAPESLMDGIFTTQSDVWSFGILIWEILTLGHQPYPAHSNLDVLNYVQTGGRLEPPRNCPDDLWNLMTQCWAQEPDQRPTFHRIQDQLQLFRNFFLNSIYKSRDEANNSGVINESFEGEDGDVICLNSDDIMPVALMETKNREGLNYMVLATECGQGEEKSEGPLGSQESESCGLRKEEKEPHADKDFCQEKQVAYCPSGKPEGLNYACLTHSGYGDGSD
T12 sequence (P21802 22-821): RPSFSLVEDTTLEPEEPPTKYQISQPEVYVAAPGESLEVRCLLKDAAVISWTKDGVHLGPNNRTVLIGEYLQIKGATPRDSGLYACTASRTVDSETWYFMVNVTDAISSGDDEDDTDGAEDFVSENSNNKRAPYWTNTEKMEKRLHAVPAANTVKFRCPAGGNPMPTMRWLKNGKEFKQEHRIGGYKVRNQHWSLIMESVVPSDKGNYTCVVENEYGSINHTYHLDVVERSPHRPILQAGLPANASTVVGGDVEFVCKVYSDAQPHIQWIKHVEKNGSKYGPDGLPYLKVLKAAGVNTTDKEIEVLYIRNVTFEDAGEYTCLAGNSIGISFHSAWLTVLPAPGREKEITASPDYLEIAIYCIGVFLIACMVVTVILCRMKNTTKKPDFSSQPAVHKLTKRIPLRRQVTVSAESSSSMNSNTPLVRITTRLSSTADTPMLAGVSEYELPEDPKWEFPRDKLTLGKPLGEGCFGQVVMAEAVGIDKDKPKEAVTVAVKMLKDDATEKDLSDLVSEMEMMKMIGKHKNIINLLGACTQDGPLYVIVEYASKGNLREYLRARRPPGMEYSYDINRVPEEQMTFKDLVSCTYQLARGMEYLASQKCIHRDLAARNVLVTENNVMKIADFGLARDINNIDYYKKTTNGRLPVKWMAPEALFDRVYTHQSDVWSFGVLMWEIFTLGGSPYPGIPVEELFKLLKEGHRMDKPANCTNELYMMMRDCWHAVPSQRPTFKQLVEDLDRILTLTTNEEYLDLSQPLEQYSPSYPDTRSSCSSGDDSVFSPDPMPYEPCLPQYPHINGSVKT
T7 sequence (P09769 whole entry): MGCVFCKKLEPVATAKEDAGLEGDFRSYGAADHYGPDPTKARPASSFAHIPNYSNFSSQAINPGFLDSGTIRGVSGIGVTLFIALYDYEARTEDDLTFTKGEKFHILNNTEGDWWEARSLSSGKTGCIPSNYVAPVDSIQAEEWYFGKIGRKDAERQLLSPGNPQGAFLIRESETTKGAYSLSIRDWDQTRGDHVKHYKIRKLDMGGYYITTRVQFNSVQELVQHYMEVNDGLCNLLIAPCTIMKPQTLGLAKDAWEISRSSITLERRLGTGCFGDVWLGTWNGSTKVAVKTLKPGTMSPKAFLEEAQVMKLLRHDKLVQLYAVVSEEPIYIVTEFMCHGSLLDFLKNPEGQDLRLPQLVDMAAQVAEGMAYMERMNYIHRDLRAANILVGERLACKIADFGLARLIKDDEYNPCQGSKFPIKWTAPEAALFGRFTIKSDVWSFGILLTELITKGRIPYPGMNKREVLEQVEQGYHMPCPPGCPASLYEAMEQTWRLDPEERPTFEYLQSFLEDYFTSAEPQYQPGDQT
T8 sequence (P23458 875-1154 limits assumed): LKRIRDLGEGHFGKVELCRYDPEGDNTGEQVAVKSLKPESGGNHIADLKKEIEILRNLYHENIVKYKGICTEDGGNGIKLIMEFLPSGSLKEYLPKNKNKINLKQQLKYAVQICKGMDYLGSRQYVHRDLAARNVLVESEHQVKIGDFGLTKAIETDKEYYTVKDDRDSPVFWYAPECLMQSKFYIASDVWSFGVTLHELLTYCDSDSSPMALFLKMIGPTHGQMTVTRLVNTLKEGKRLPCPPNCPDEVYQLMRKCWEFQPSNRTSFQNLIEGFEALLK

COC(=O)c1cnc(S(C)(=O)=O)nc1N1CCCC(n2nc(-c3ccc(Oc4ccccc4)cc3)c3c(N)ncnc32)C1 (stereo not drawn) [Compound 8b, Methyl 4-(3-(4-Amino-3-(4-phenoxyphenyl)-1H-pyrazolo[3,4-d]pyrimidin-1-yl)piperidin-1-yl)-2-(methylsulfonyl)pyrimidine-5-carboxylate]
%Control @1000nM (FLT3(ITD)): 100% | % difference (compound - Ib %Control) (FLT3(ITD); @1000nM): 28% | %Control (FLT3(ITD); @1000nM): 100% | %Control difference versus reference Ib at 1 µM (ROS1; @1000nM, read-out: % difference (compound - Ib %Control)): -11% | remaining binding at 1 µM (ROS1; @1000nM, read-out: %Control): 86% | remaining binding at 1 µM (ROS1; read-out: %Control @1000nM): 86% | difference in %Control versus compound Ib at 1 µM (EGFR(S752-I759del); @1000nM): 80% | remaining binding at 1 µM (EGFR(S752-I759del); @1000nM, read-out: %Control): 82% | remaining binding at 1 µM (EGFR(S752-I759del); read-out: %Control @1000nM): 82% | remaining binding at 1 µM (PDGFRB; @1000nM, read-out: %Control): 68% | remaining binding at 1 µM (PDGFRB; read-out: %Control @1000nM): 68% | difference in %Control vs compound Ib at 1 µM ([1]; @1000nM): -18% | remaining binding at 1 µM ([1]; @1000nM, read-out: %Control): 82% | remaining binding at 1 µM ([1]; read-out: %Control @1000nM): 82% | difference in % of control versus compound Ib at 1 µM (FYN; @1000nM): 16.4% | remaining binding at 1 µM (FYN; @1000nM, read-out: %Control): 26% | remaining binding at 1 µM (FYN; read-out: %Control @1000nM): 26% | remaining binding at 1 µM (KIT(D816V); @1000nM, read-out: %Control): 85% | remaining binding at 1 µM (KIT(D816V); read-out: %Control @1000nM): 85% | difference in %Control versus compound Ib at 1 µM (FGR; @1000nM): 20.7% | remaining binding at 1 µM (FGR; @1000nM, read-out: %Control): 26% | remaining binding at 1 µM (FGR; read-out: %Control @1000nM): 26% | difference in %Control versus compound Ib at 1 µM ([2]; @1000nM): 3% | remaining binding at 1 µM ([2]; @1000nM, read-out: %Control): 97% | remaining binding at 1 µM ([2]; read-out: %Control @1000nM): 97% | difference in %Control from reference compound Ib at 1 µM (ABL2; @1000nM): 38% | remaining binding at 1 µM (ABL2; @1000nM, read-out: %Control): 79% | remaining binding at 1 µM (ABL2; read-out: %Control @1000nM): 79% | difference in % of control versus compound Ib at 1 µM (EGFR(L858R,T790M); @1000nM): 69% | remaining binding at 1 µM (EGFR(L858R,T790M); @1000nM, read-out: %Control): 79% | remaining binding at 1 µM (EGFR(L858R,T790M); read-out: %Control @1000nM): 79% | difference in %Control from compound Ib at 1 µM (ABL1-phosphorylated; @1000nM): 19% | remaining binding at 1 µM (ABL1-phosphorylated; @1000nM, read-out: %Control): 79% | remaining binding at 1 µM (ABL1-phosphorylated; read-out: %Control @1000nM): 79% | difference in %Control vs compound Ib at 1 µM (FGFR2; @1000nM): 47% | remaining binding at 1 µM (FGFR2; @1000nM, read-out: %Control): 86% | remaining binding at 1 µM (FGFR2; read-out: %Control @1000nM): 86% | remaining binding at 1 µM (YES; @1000nM, read-out: %Control): 16% | remaining binding at 1 µM (YES; read-out: %Control @1000nM): 16% | difference in %Control versus compound Ib at 1 µM (EPHA1; @1000nM): -16% | remaining binding at 1 µM (EPHA1; @1000nM, read-out: %Control): 56% | remaining binding at 1 µM (EPHA1; read-out: %Control @1000nM): 56%
